Measured values taken from US4087540A, “Octahydro-N-[(trichloromethyl)thio]-naphthalenedicarboximides” (Sterling Drug Inc., priority 1977, dated 1978).

Key:
fungus [1] = test: fungicidal activity (general); details: for fungicidal activity: in words
From the text: (§1) In order to find a fungicide with high solubility in petroleum hydrocarbons, numerous N-trichloromethylthio compounds have been synthesized and tested for activity and solubility. […] Rather, activity is associated with certain structural features.

Pullularia pullulans = test: minimum inhibitory concentration against Pullularia pullulans; type: cell-based; details: microorganism 5, Pullularia pullulans
From the text: (§2) These properties appear to be associated with the octahydronaphthalene structure of the compounds. Thus when the anhydride VIII (Z=O) was converted to the corresponding N-[(trichloromethyl)thio]-imide (VIII, Z=N--S--CCl3) the surprising observation was made that the cyclized compound IC has about five times the fungicidal activity, and against staphylococcus aureus about 100 times the activity, of the uncyclized compound VIII (Z=N--S--CCl3) and that the latter compound had only one-fifth the solubility of compound IC. The solubility data and minimum inhibitory concentration against several microorganisms for these two compounds as well as the known fungicide Captan are presented in the following table.

Candida albicans = test: minimum inhibitory concentration against Candida albicans; type: cell-based; details: microorganism 7, Candida albicans
From the text: as §2

Staphylococcus aureus = test: minimum inhibitory concentration against Staphylococcus aureus; type: cell-based; details: for Minimum Inhibitory Concentration (%): microorganism 1, Staphylococcus aureus
From the text: as §2

fungus [2] = details: cited from earlier work; for properties as fungicidal additives to paints: Fette, Seifen, Anstrichmittel 1966
Penicillium glaucum = test: minimum inhibitory concentration against Penicillium glaucum; type: cell-based; details: microorganism 2, Penicillium glaucum
From the text: as §2

Aspergillus niger = test: minimum inhibitory concentration against Aspergillus niger; type: cell-based; details: microorganism 3, Aspergillus niger
From the text: as §2

[3] = B. A. Richardson; cited from earlier work
[4] = type: physicochemical; details: in words
From the text: as §1

Sclerophoma pityophila = test: minimum inhibitory concentration against Sclerophoma pityophila; type: cell-based; details: microorganism 4, Sclerophoma pityophila
From the text: as §2

Saccharomyces cerevisiac = test: minimum inhibitory concentration against Saccharomyces cerevisiac; type: cell-based; details: microorganism 6, Saccharomyces cerevisiac
From the text: as §2

blue discoloration = details: E. Hoffman and A. Saracz; cited from earlier work
[5] = cited from earlier work
[6] = solubility in mineral spirits; type: physicochemical; details: VIII (Z=N--S--CCl3) vs IC
From the text: as §2

## O=C1C2C3c4ccccc4C(c4ccccc43)C2C(=O)N1SC(Cl)(Cl)Cl (centres unmarked)
Fungus [1]
  fungicidal activity: inactive

## CC12CCC(C(=O)N(SC(Cl)(Cl)Cl)C1=O)C2(C)C (centres unmarked)
Fungus [1]
  fungicidal activity: inactive

## CCCCCCCCCCCCCCCCC1CC(=O)N(SC(Cl)(Cl)Cl)C1=O (centres unmarked)
Fungus [1]
  fungicidal activity: inactive

## O=C1Cc2ccccc2C(=O)N1SC(Cl)(Cl)Cl
Fungus [1]
  fungicidal activity: inactive

## O=C1C2CC=CCC2C(=O)N1SC(Cl)(Cl)Cl (centres unmarked) [Captan]
Pullularia pullulans
  Minimum Inhibitory Concentration (%): 0.005%
Candida albicans
  Minimum Inhibitory Concentration (%): 0.01%
Staphylococcus aureus
  Minimum Inhibitory Concentration (%): 0.05%
Fungus [2]; owing to its low solubility in paints, B. A. Richardson
  fungicidal effectiveness in paints: practically ineffective
Penicillium glaucum
  Minimum Inhibitory Concentration (%): 0.01%
Aspergillus niger
  Minimum Inhibitory Concentration (%): 0.05%
[3]
  solubility in paints: low solubility

## CC1=C2CCC(C)CC2C2C(=O)N(SC(Cl)(Cl)Cl)C(=O)C2C1 (centres unmarked) [IA, 1,2,3,5,6,7,8,8a-octahydro-4,7-dimethyl-N-[(trichloromethyl)-thio]-1,2-naphthalenedicarboximide]
[4]
  solubility in petroleum hydrocarbons: good solubility in petroleum hydrocarbons
Fungus [1]
  fungicidal activity: excellent fungicidal activity

## CC1(C)C2CC3C(=CCC4C(=O)N(SC(Cl)(Cl)Cl)C(=O)C43)C1C2 (centres unmarked) [IB, 1,2,3,4,4a,5,6,7-octahydro-2,2-dimethyl-N-[(trichloromethyl)thio]-1,3-methanonaphthalene-5,6-dicarboximide]
[4]
  solubility in petroleum hydrocarbons: good solubility in petroleum hydrocarbons
Fungus [1]
  fungicidal activity: excellent fungicidal activity

## CC1(C)CCCC2=C1CC1C(=O)N(SC(Cl)(Cl)Cl)C(=O)C1C2 (centres unmarked) [IC, 1,2,3,4,5,6,7,8-octahydro-5,5-dimethyl-N-[(trichloromethyl)thio]-2,3-naphthalenedicarboximide]
Sclerophoma pityophila
  Minimum Inhibitory Concentration (%): 0.001%
Saccharomyces cerevisiac
  Minimum Inhibitory Concentration (%): 0.001%
Pullularia pullulans
  Minimum Inhibitory Concentration (%): 0.001%
[4]
  solubility in petroleum hydrocarbons: good solubility in petroleum hydrocarbons
Candida albicans
  Minimum Inhibitory Concentration (%): 0.001%
Staphylococcus aureus; IC vs VIII
  activity against staphylococcus aureus relative to uncyclized compound VIII (Z=N--S--CCl3): about 100 times
Staphylococcus aureus
  Minimum Inhibitory Concentration (%): 0.01%
Penicillium glaucum
  Minimum Inhibitory Concentration (%): 0.001%
Aspergillus niger
  Minimum Inhibitory Concentration (%): 0.01%
Fungus [1]; IC vs VIII
  fungicidal activity relative to uncyclized compound VIII (Z=N--S--CCl3): about five
Fungus [1]
  fungicidal activity: excellent fungicidal activity

## O=C1c2ccccc2C(=O)N1SC(Cl)(Cl)Cl [III]
Blue discoloration
  sufficiency of 1% to prevent blue discoloration: insufficient to prevent blue discoloration

## O=C1C2CCCCC2C(=O)N1SC(Cl)(Cl)Cl (centres unmarked) [IV]
[5]
  solubility in petroleum ether: 0.3%

## CC(C)=CCCC1=CCC2C(=O)N(SC(Cl)(Cl)Cl)C(=O)C2C1 (centres unmarked) [VIII]
Sclerophoma pityophila
  Minimum Inhibitory Concentration (%): 0.005%
Saccharomyces cerevisiac
  Minimum Inhibitory Concentration (%): 0.005%
Pullularia pullulans
  Minimum Inhibitory Concentration (%): 0.005%
[6]
  solubility relative to compound IC: one-fifth
Candida albicans
  Minimum Inhibitory Concentration (%): 0.01%
Staphylococcus aureus
  Minimum Inhibitory Concentration (%): 1%
Penicillium glaucum
  Minimum Inhibitory Concentration (%): 0.005%
Aspergillus niger
  Minimum Inhibitory Concentration (%): 0.01%

## CN(C)S(=O)(=O)N(SC(F)(Cl)Cl)c1ccccc1 [VI]
Fungus [2]
  properties as fungicidal additives to paints: useful properties

## O=C1c2ccccc2C(=O)N1SC(F)(Cl)Cl [V]
Fungus [2]
  properties as fungicidal additives to paints: useful properties
